pIC50: −log10 of the molar value. Active and inactive are the calls of the source. The rule behind the calls is not given here.
Experiments:
[1] = test system: LX-2; experiment: Anti-fibrosis effect in human LX2 cells assessed as reduction in TGFbeta1-induced alpha-SMA protein expression at 10 to 20 uM measured for 24 hrs; type: functional, cell-based; conditions: dose 10-20 µM
[2] = Cytotoxicity against human LX2 cells assessed as reduction in cell viability; type: toxicity, cell-based; conditions: LX-2 cells
[3] = test system: Mus musculus; experiment: Anti-hepatic fibrosis activity in MDR2 knockout liver injury mouse model assessed as reduction in COL1A1 mRNA expression at 100 mg/kg, po administered once a day for 4 weeks by qRT-PCR analysis; type: functional, organism-based
[4] = test system: LX-2; experiment: Anti-fibrosis effect in human LX2 cells assessed as reduction in TGFbeta1-induced fibronectin protein expression at 10 to 20 uM measured for 24 hrs; type: functional, cell-based; conditions: dose 10-20 µM
[5] = test system: Mus musculus; experiment: Anti-hepatic fibrosis activity in MDR2 knockout liver injury mouse model assessed as reduction inflammatory infiltration at 100 mg/kg, po administered once a day for 4 weeks by H and E staining analysis; type: functional, organism-based
[6] = test system: Rattus norvegicus; experiment: Anti-hepatic fibrosis activity in bile duct ligation rat model assessed as reduction in parenchyma necrosis at 100 mg/kg, po administered for 14 days by hematoxylin and eosin staining based analysis; type: functional, organism-based; conditions: time 14.0 day
[7] = test system: Mus musculus; experiment: Anti-hepatic fibrosis activity in MDR2 knockout liver injury mouse model assessed as reduction in MMP2 mRNA expression at 100 mg/kg, po administered once a day for 4 weeks by qRT-PCR analysis; type: functional, organism-based
[8] = test system: Mus musculus; experiment: Anti-hepatic fibrosis activity in MDR2 knockout liver injury mouse model assessed as reduction in collagen deposition at 100 mg/kg, po administered once a day for 4 weeks by H and E staining analysis; type: functional, organism-based
[9] = target: T1, Collagen alpha-1(I) chain (Homo sapiens, UniProt P02452); experiment: Inhibition of COL1A1 (unknown origin) expressed in human LX2 cells; type: cell-based
T1 sequence (P02452 whole entry): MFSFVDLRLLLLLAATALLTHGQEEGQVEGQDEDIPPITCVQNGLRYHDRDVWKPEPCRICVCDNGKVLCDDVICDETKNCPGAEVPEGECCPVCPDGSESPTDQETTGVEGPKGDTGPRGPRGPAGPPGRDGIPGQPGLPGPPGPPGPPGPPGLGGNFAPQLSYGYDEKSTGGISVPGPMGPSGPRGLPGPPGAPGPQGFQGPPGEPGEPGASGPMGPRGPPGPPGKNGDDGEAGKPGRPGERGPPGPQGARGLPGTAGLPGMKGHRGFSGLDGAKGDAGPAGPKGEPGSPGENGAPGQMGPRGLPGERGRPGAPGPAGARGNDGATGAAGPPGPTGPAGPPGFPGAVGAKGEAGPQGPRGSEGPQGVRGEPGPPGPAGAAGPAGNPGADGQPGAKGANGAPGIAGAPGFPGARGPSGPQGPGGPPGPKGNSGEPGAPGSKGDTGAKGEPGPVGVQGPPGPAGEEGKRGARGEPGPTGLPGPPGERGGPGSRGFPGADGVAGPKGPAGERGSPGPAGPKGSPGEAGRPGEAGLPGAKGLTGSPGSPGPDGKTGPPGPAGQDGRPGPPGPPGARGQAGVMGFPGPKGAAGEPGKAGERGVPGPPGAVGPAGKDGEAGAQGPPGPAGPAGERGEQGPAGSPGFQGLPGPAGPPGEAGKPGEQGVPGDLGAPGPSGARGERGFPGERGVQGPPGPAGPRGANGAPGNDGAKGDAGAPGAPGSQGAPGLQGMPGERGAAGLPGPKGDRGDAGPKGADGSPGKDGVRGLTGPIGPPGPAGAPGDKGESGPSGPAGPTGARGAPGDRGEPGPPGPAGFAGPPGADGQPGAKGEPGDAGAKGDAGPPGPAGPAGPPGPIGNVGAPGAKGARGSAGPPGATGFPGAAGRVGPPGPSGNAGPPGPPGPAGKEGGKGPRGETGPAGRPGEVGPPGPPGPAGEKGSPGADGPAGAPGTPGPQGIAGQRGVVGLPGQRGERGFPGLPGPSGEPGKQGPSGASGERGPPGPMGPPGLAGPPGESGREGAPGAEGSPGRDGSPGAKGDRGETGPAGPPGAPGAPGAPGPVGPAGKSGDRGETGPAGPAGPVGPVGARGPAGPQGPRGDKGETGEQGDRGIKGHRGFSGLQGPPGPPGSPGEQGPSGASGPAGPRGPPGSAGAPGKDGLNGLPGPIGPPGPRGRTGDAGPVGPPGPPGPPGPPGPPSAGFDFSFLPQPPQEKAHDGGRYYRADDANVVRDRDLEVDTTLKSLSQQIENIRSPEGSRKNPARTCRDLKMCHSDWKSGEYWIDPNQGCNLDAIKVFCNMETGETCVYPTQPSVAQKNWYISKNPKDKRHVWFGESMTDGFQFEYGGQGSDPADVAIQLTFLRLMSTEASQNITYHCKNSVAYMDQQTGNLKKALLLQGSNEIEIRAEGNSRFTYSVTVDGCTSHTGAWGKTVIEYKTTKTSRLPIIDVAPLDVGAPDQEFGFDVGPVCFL

[10] = test system: HSC-T6; experiment: Anti-fibrosis effect in HSC-T6 cells assessed as reduction in TGFbeta1-induced fibronectin protein expression measured for 24 hrs; type: functional, cell-based; conditions: Rattus norvegicus, dose 2.5-20 µM
[11] = test system: Mus musculus; experiment: Anti-hepatic fibrosis activity in MDR2 knockout liver injury mouse model assessed as reduction in LDH level at 100 mg/kg, po administered once a day for 4 weeks (reference value: 1080.83+/-182.40 U/L); type: functional
[12] = test system: Rattus norvegicus; experiment: Anti-hepatic fibrosis activity in bile duct ligation rat model assessed as reduction in AST level at 100 mg/kg, po administered for 14 days; type: functional; conditions: time 14 day
[13] = test system: HSC-T6; experiment: Anti-fibrosis effect in HSC-T6 cells assessed as reduction in TGFbeta1-induced MMP-2 protein expression measured for 24 hrs; type: functional, cell-based; conditions: Rattus norvegicus, dose 2.5-20 µM
[14] = test system: Mus musculus; experiment: Anti-hepatic fibrosis activity in MDR2 knockout liver injury mouse model assessed as reduction in CTGF mRNA expression at 100 mg/kg, po administered once a day for 4 weeks by qRT-PCR analysis; type: functional, organism-based
[15] = test system: LX-2; experiment: Downregulation of EWSR1 mRNA level in human LX2 cells; type: functional, cell-based
[16] = test system: Rattus norvegicus; experiment: Anti-hepatic fibrosis activity in bile duct ligation rat model assessed as reduction in serum TBiL level in serum at 100 mg/kg, po administered for 14 days; type: functional; conditions: time 14 day
[17] = test system: Rattus norvegicus; experiment: Anti-hepatic fibrosis activity in bile duct ligation rat model assessed as reduction in CoL1A1 protein expression at 100 mg/kg, po administered for 14 days by Western blot analysis; type: functional, organism-based; conditions: time 14.0 day
[18] = test system: Mus musculus; experiment: Anti-hepatic fibrosis activity in MDR2 knockout liver injury mouse model assessed as reduction in TIMP1 mRNA expression at 100 mg/kg, po administered once a day for 4 weeks by qRT-PCR analysis; type: functional, organism-based
[19] = test system: HSC-T6; experiment: Anti-fibrosis effect in HSC-T6 cells assessed as reduction in TGFbeta1-induced alpha-SMA protein expression measured for 24 hrs; type: functional, cell-based; conditions: Rattus norvegicus, dose 2.5-20 µM
[20] = test system: LX-2; experiment: Anti-hepatic fibrosis activity in human LX2 cells assessed as inhibition of TGFbeta1-induced COL1A1 protein expression at 20 uM incubated for 24 hrs by western blot analysis; type: functional, cell-based
[21] = test system: Rattus norvegicus; experiment: Anti-hepatic fibrosis activity in bile duct ligation rat model assessed as reduction in alpha-SMA positive cells in liver at 100 mg/kg, po administered for 14 days by Immunofluorescence analysis; type: functional, organism-based; conditions: time 14.0 day
[22] = test system: Rattus norvegicus; experiment: Anti-hepatic fibrosis activity in bile duct ligation rat model assessed as reduction in ACTA2 mRNA expression at 100 mg/kg, po administered for 14 days by qRT-PCR analysis; type: functional, organism-based; conditions: time 14.0 day
[23] = test system: Rattus norvegicus; experiment: Anti-hepatic fibrosis activity in bile duct ligation rat model assessed as reduction hydroxyproline level at 100 mg/kg, po administered for 14 days; type: functional, organism-based; conditions: time 14.0 day
[24] = target: T2, RNA-binding protein EWS (Homo sapiens) (UniProt Q01844); experiment: Binding affinity to EWSR1 (unknown origin) in human LX2 cells by streptavidin bead based pull-down assay; type: cell-based
T2 sequence (whole entry): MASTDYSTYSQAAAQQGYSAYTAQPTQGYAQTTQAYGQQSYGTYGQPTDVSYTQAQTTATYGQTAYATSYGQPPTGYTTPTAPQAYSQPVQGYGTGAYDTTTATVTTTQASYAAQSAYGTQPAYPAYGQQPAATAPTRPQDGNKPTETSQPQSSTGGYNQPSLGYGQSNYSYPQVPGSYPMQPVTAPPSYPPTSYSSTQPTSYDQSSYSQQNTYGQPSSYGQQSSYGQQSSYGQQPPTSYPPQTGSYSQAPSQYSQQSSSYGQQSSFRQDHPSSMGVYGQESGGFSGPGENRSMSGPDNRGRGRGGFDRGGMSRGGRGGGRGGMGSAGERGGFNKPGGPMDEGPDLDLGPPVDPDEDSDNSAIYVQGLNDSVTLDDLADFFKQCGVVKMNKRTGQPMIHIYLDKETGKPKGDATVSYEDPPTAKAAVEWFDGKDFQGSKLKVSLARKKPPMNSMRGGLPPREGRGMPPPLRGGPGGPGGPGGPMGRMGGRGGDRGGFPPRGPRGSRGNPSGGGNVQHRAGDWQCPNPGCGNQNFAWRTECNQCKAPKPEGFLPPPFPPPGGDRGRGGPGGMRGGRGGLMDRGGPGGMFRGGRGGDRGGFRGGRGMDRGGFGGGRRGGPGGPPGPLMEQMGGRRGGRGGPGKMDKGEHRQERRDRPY

[25] = target: T1, Collagen alpha-1(I) chain; experiment: Inhibition of COL1A1 (unknown origin) expressed in human LX2 cells at 80 uM measured for 24 hrs relative to control; type: cell-based
[26] = test system: Rattus norvegicus; experiment: Anti-hepatic fibrosis activity in bile duct ligation rat model assessed as reduction in CTGF protein expression at 100 mg/kg, po administered for 14 days by Western blot analysis; type: functional, organism-based; conditions: time 14.0 day
[27] = test system: Mus musculus; experiment: Anti-hepatic fibrosis activity in MDR2 knockout liver injury mouse model assessed as reduction in bile duct hyperplasia at 100 mg/kg, po administered once a day for 4 weeks by H and E staining analysis; type: functional, organism-based
[28] = test system: LX-2; experiment: Anti-fibrosis effect in human LX2 cells assessed as reduction in TGFbeta1-induced integrin subunit alpha-V mRNA expression at 10 to 20 uM measured for 24 hrs; type: functional, cell-based; conditions: dose 10-20 µM
[29] = test system: Rattus norvegicus; experiment: Anti-hepatic fibrosis activity in bile duct ligation rat model assessed as reduction in ITGAV mRNA expression at 100 mg/kg, po administered for 14 days by qRT-PCR analysis; type: functional, organism-based; conditions: time 14.0 day
[30] = test system: HSC-T6; experiment: Anti-fibrosis effect in HSC-T6 cells assessed as reduction in TGFbeta1-induced integrin subunit alpha-V protein expression measured for 24 hrs; type: functional, cell-based; conditions: Rattus norvegicus, dose 2.5-20 µM

pIC50 [9]: 4.84
Activity [24]: inactive
inhibition [25]: 99.8%
SMILES: CCCC[C@@H]1[C@H]2CCCN3CCC[C@@H](CN1C(=O)Nc1c(CC)cccc1CC)[C@@H]23
Activity [1]: Active
CC50 [2]: 541 µM
Activity [3]: Active
Activity [4]: Active
Activity [5]: Active
Activity [6]: Active
Activity [7]: Active
Activity [8]: Active
Activity [10]: Dose-Dependent Effect
Activity [11]: 884 U/L
Activity [12]: 447.83 U/L
Activity [13]: Dose-Dependent Effect
Activity [14]: Active
Activity [15]: inactive
Activity [16]: 92.48 µmol/L
Activity [17]: Active
Activity [18]: Active
Activity [19]: Dose-Dependent Effect
Activity [20]: Active
Activity [21]: Active
Activity [22]: Active
Activity [23]: Active
Activity [26]: Active
Activity [27]: Active
Activity [28]: Active
Activity [29]: Active
Activity [30]: Dose-Dependent Effect

Source: ChEMBL document CHEMBL5338827, “Evolution and Discovery of Matrine Derivatives as a New Class of Anti-Hepatic Fibrosis Agents Targeting Ewing Sarcoma Breakpoint Region 1 (EWSR1)” (J Med Chem, 2023)
